Patent US11952432B2, “Cell-permeable stapled peptide modules for cellular delivery” (Dana-Farber Cancer Institute, Inc., priority 2018, dated 2024)
Entries after “also recorded” stand apart in the source; their conditions may differ. Bridge positions count the residues as written; N and C are the ends. Square brackets hold non-standard residues; d marks the D form. Ends that are not written are not given here. R8 = C=CCCCCCC[C@@](C)(N)C(=O)O; S5 = C=CCCC[C@](C)(N)C(=O)O; Nle = CCCC[C@H](N)C(=O)O; CycB = not defined here; βAla = NCCC(=O)O

Key:
MCL-1 = biological target: T1, MCL-1 (Homo sapiens, UniProt Q07820); experiment: Intracellular binding assay: colocalization with expressed MCL-1 ectopically targeted to the nuclear lamina; type: cell-based; conditions: colocalization at nuclear lamina with ectopically targeted MCL-1 (FIG. 5)
T1 construct: expressed in transfected cells
T1 sequence (Q07820 whole entry, species assumed): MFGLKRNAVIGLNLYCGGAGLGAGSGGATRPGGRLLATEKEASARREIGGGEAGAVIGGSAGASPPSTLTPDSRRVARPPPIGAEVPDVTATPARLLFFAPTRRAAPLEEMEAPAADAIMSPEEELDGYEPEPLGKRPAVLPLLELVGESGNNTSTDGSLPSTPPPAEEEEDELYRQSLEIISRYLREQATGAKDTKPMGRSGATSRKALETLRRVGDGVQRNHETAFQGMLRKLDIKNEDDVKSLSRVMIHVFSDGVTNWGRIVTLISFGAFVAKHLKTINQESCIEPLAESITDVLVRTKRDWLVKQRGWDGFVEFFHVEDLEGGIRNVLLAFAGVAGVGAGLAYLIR
Excerpt: Intracellular binding Assays: To assess the binding of the CPSP-fusions to their respective protein target(s), cells were transfected with a GFP binding nanobody fraction coupled to nuclear lamina binding sequence (lamin B1). This nanobody binds to GFP tagged proteins and recruits them to the nuclear lamina allowing the recruitment and visualization of proteins interacting with the GFP tagged protein of interest. For example, GFP-MCL-1 can be expressed and localized to the nuclear lamina, followed by treatment of cells with TAMRA-labeled ATSP-7041/MCL-1 SAHBD fusion, followed by confocal microscopy imaging to monitor for the colocalization of TAMRA-labeled CPSP fusion at the nuclear lamina.

cells = experiment: Cellular uptake and intracellular distribution of TAMRA-labeled peptides by fluorescence microscopy; conditions: for Distribution/Observations: TAMRA-labeled peptides 10 μM, approximately 1 hour incubation, fluorescence microscope
Excerpt: In Vitro Cell Uptake Assays: To assess cellular uptake of cargoes that are bound to cell-permeable stapled peptide modules, fluorescent tracers (e.g. TAMRA, FITC) are attached to the cell-permeable stapled peptide modules or the cargos. The cellular uptake can be tracked by, e.g., epifluorescence microscopy, fluorescence microscopy, confocal microscopy, and/or flow cytometry, at different time periods. In this manner, the rate of uptake and the intracellular distribution patterns of the stabilized peptides (e.g., CPSPs and CPSP-conjugates, other cell-permeable stapled peptides) can also be determined.
CPSP1-CPSP9 and L-CPSP (where L is an F-actin staining peptide) were labeled with a fluorescent dye, TAMRA. […] These TAMRA-labeled peptides (10 μM) were added to cell culture. After incubating the peptides with the cells for approximately 1 hour, the cells were examined by a fluorescence microscope.
Furthermore, TAMRA-labeled CPSP3 (SEQ ID NO: 14) (10 μM) and MitoTracker were both added to the cell culture.

[1] = tested on: mitochondria of the treated cells; experiment: Co-labeling of TAMRA-labeled CPSP3 with MitoTracker; type: cell-based; conditions: 10 μM (FIG. 2); listed as TAMRA-labeled CPSP3
[2] = conjugated to CPSP3, 10 μM (FIG. 3B)

| Substance | Distribution/Observations (cells) | also measured |
| --- | --- | --- |
| * Ba R K A L E T L R R V B D G V X R N H X T A F G G G G G L T F 8 E Y W A Q CycB X S A A (SEQ ID NO: 22) ([βAla]RKALETLRRV[Nle]DGV[S5]RNH[S5]TAFGGGGGLTF[R8]EYWAQ[CycB][S5]SAA; staple 16-20, 32-39 (inferred); reading uncertain; also: TAMRA label) [TAMRA-labeled MCL-1 SAHBD/ATSP-7041] |  | intracellular engagement of MCL-1 (MCL-1): colocalization of the fusion to the nuclear lamina; intracellular engagement of MCL-1 (MCL-1; listed as CPSP-MCL-1 SAHBD conjugate): retains the capacity to engage its intracellular target; delivery to the cytosol of treated cells (cells; 4 μM, 4 hours (FIG. 1, FIGS. 4A-B)): efficiently delivered to the cytosol |
| * Ba X R r R X R B G X R r R X R B (SEQ ID NO: 20) [TAMRA-CPSP9] | Cytosol; Nucleus; Nucleolus; Endosomes; lysosomes |  |
| Ac B G V A D L I K K F E X I A K X E K* G G G G G X R r R X R B (SEQ ID NO: 21) (Ac-[Nle]GVADLIKKFE[S5]IAK[S5]EK(TAMRA)GGGGG[S5]R[dR]R[S5]R[Nle]; not fully specified (bridges); bridges not given here) [TAMRA-L-CPSP3] | Cytosol; Nucleus; Nucleolus; Endosomes; lysosomes;; also recorded: Actin filaments | delivery of the peptide into the cell (cells; [2]): robust delivery of the peptide into the cell; intracellular localization (cells; [2]): notable localization of L-CPSP3 to actin filaments |
| * Ba XRrRXRB-GZG-EALKKALRRHRFLWQR RQRA (SEQ ID NO: 63) ([βAla][S5]R[dR]R[S5]R[Nle]G[βAla]GEALKKALRRHRFLWQRRQRA; not fully specified (N-terminus, bridges); bridges not given here; also: TAMRA label) [TAMRA-CPSP3/vMIA] |  | intracellular delivery (cells; 10 μM, 1 h (FIG. 7, bottom panel)): robust intracellular delivery |
| * Ba LTF8EYWAQ CycB XSAAAGGGGGK (SEQ ID NO: 61) -[GCCTAGTTTATCACCAATAAT] (SEQ ID NO: 62) [TAMRA-ATSP-7041/PNA] |  | intracellular delivery (cells; PNA fusion (FIG. 6)): robust intracellular delivery |
| * Ba X R r R X Naph (SEQ ID NO: 17) [TAMRA-CPSP6] | Cytosol; Nucleus; Nucleolus; Endosomes; lysosomes |  |
| * Ba X R r R X R B (SEQ ID NO: 14) [TAMRA-CPSP3] | CPSP3 were enriched at mitochondria as well as Cytosol;; also recorded: Nucleus; Nucleolus; Endosomes; lysosomes | enrichment at the mitochondria (co-labeling with MitoTracker) [1]: Enrichment of TAMRA-labeled CPSP3 at the mitochondria |
| * Ba X R r R X R Naph (SEQ ID NO: 16) [TAMRA-CPSP5] | Cytosol; Nucleus; Nucleolus; Endosomes; lysosomes |  |
| * Ba X R R R X R B (SEQ ID NO: 18) [TAMRA-CPSP7] | Cytosol; Nucleus; Nucleolus; Endosomes; lysosomes |  |
| * Ba X R r R X R (SEQ ID NO: 12) [TAMRA-CPSP1] | Cytosol; Nucleus; Nucleolus; Endosomes; lysosomes |  |
| * Ba X R r R X R B G B R X R r R X (SEQ ID NO: 19) [TAMRA-CPSP8] | Cytosol; Nucleus; Nucleolus; Endosomes; lysosomes |  |
| * Ba X R r R X (SEQ ID NO: 13) [TAMRA-CPSP2] | Cytosol; Nucleus; Nucleolus; Endosomes; lysosomes |  |
| * Ba X R r R X B (SEQ ID NO: 15) [TAMRA-CPSP4] | Cytosol; Nucleus; Nucleolus; Endosomes; lysosomes |  |
